Source: ChEMBL document CHEMBL1146469, “Tasnemoxides A-C, new cytotoxic cyclic norsesterterpene peroxides from the Red Sea sponge Diacarnus erythraenus” (J Nat Prod, 2004)

Experiments:
Type in all cases: functional, cell-based
[1] = tested on: A549; experiment: Cytotoxicity against human A549 cells by dilution assay
[2] = tested on: P388; experiment: Cytotoxicity against mouse P388 cells by dilution assay
[3] = tested on: HT-29; experiment: Cytotoxicity against human HT-29 cells by dilution assay

Measured: IC50

CC1=C(CCC(C)(O)/C=C/C[C@@]2(C)CC[C@H]([C@H](C)C(=O)O)OO2)C(C)(C)CCC1 (some centres undefined) [TASNEMOXIDE A]
> 1 µg/mL: all assays above

C=C(CCC1=C(C)CCCC1(C)C)C(O)CC[C@@]1(C)CC[C@H]([C@H](C)C(=O)O)OO1 (some centres undefined) [TASNEMOXIDE B]
> 1 µg/mL: all assays above

C=C(CCC[C@@]1(C)CC[C@H]([C@H](C)C(=O)OC)OO1)CCC1(O)C(=C)CCCC1(C)C (some centres undefined) [TASNEMOXIDE C]
> 1 µg/mL: all assays above
